From article PMC8523698, “Preclinical characterization of an intravenous coronavirus 3CL protease inhibitor for the potential treatment of COVID19” (Nature Communications, 2021)

Tested on: SARS-CoV-2 Belgium/GHB-03021/2020 strain
Test: microbe, parasite or virus in culture
Format: cell-based
Set-up: Percent Effect: scale not given: direction of the effect not stated beside the values

`COc1cccc2[nH]c(C(=O)N[C@@H](CC(C)C)C(=O)N[C@@H](C[C@@H]3CCNC3=O)C(=O)CO)cc12` [PF-00835231-00] was tested. Which “Percent Effect” value did it give?
The value was 0.59%.
